We go through two molecules from US9795602B2, “Polycyclic-carbamoylpyridone compounds and their pharmaceutical use” (Gilead Sciences, Inc., priority 2014, dated 2017).

pEC50, pIC50: −log10 of the molar value.

One series deals with OCT2 (Homo sapiens (Human), UniProt O15244). The experiment in a line: OCT2 inhibition assay (14C-TEA uptake, OCT2-transfected MDCKII cells). Type of series: cell-based. On the procedure: MDCKII cells were maintained in minimal essential medium (MEM) with 1% Pen/Strep, 10% fetal bovine serum, and 0.25 mg/mL hygromycin B in an incubator set at 37° C., 90% humidity and 5% CO2. 24 hours prior to assay, media containing 5 mM sodium butyrate were added to MDCKII cells in flasks, and cells were grown to 80-90% confluence. On assay day, cells were trypsinized and resuspended in Krebs-Henseleit Buffer (KHB), pH 7.4 at […]. Cells were preincubated for 15 min in assay plate before addition of test compound or substrate.
Chain of OCT2 (O15244 whole entry): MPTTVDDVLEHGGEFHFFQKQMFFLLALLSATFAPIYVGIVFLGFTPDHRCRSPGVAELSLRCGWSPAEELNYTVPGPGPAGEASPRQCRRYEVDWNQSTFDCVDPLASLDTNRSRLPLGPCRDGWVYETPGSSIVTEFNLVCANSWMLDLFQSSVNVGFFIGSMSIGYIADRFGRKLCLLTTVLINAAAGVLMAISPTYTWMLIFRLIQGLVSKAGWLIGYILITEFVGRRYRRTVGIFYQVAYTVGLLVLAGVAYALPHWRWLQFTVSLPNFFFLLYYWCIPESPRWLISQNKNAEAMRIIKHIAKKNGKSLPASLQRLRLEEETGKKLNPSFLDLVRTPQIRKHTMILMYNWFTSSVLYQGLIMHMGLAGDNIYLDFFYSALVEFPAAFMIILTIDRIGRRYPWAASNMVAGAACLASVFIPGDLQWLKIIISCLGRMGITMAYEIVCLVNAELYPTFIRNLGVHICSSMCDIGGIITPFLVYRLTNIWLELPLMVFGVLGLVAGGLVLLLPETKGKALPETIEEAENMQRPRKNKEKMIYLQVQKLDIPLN
Test compounds were serially diluted in DMSO and then spiked (2 μL) into in 0.4 mL KHB buffer containing wild-type or OCT2-transfected cells and incubated for 10 minutes. Assay was initiated with the addition of 0.1 mL of 100 μM ^14C-TEA in KHB buffer (20 μM final concentration after mixing). The concentration of TEA is based on the Km. After 10 minutes of incubation, the assay mixture was quenched with addition of 0.5 mL of ice-cold 1×PBS buffer. Samples were then centrifuged at 1000 rpm for 5 min and supernatants were removed. Wash steps were repeated four times with ice-cold PBS. Finally, the cell pellets were lysed with 0.2N NaOH and let sit at room temperature for at least 30 min to ensure complete lysis. Samples were then counted on liquid scintillation counter and dpm counts were used to perform the following calculations. The % inhibition was calculated as follows: % inhibition=[1−{[OCT2]i−[WT]ni}/{[OCT2]ni−[WT]ni}]*100 where, [OCT2]i represents the dpm count in the presence of test compound for either OCT2 cells, […] of test compound for OCT2 cells and [WT]ni represents the dpm count in the absence of test compound for wild type cells, respectively.

The subject of the next series is wild-type HIV-1. The experiment in a line: Antiviral assay in MT-2 cells, wild-type HIV-1. The series is classed as cell-based. As to conditions: Human immunodeficiency virus 1, 120 h; MT2 cells, wild-type HIV-1, 5 days; read-out: wt. How it is done: (§1) For the antiviral assay utilizing MT-2 cells, 50 μL of 2× test concentration of 3-fold serially diluted compound in culture medium with 10% FBS was added to each well of a 96-well plate (9 concentrations) in triplicate. MT-2 cells were infected with wild-type or mutant variants of HIV-1 for 3 hours using a volume of viral inoculum determined to produce 90% cell killing. Fifty microliters of infected cell suspension in culture medium with 10% FBS (˜1.5×10^4 cells) was then added to each well containing 50 μL of serially diluted compound. The plates with HIV-infected cultures were then incubated at 37° C. for 5 days in the presence of the tested compounds. After 5 days of incubation, 100 μL of CellTiter-Glo™ Reagent (catalog # G7571, Promega Biosciences, Inc., Madison, Wis.) was added to each well. Cell lysis was carried out by incubating at room temperature for 10 min followed by a chemiluminescence read-out.
(§2) The chemiluminescence readout from the 10-point antiviral dose response was analyzed directly by curve fitting with equation (I) to determine the EC50.
(§3) where y=Cell Survival, M=maximum cell survival enabled by drug protection, H=baseline cell survival without drug protection, n=Hill coefficient of the antiviral dose response, m=Hill coefficient of the cytotoxicity dose response, and [I]=inhibitor concentration.
(§4) EC50 values (mean±standard deviation) were calculated from at least three independent experiments performed in triplicate. The fold-change in antiviral activity of tested compounds was calculated as a ratio of the mean EC50 for each mutant virus divided by the mean EC50 of the control WT virus.

A short description of series [1]: Pharmacokinetics after oral administration to male SD rats. The series is classed as in vivo. The following applies: Sprague-Dawley, plasma, rat, oral gavage 0.5 mg/kg, solution, read-out: % F (solution). On the procedure:
Pharmacokinetic analysis was performed on compounds 25b and 39 following intravenous or oral administration to rats.
The test compounds were formulated in 5% Ethanol, 55% PEG 300, and 40% water at 0.1 mg/mL for IV infusion and for oral dosing.
Each dosing group consisted of 3 male, Sprague-Dawley rats. At dosing, the animals weighed an average of 0.25 kg. The animals were fasted overnight prior to dose administration and up to 4 hr after dosing.
For the IV infusion group, the test article was administered by intravenous infusion over 30 min. The rate of infusion was adjusted according to the body weight of each animal to deliver a dose of 0.5 mg/kg. For the oral dosing group, the test article was administered by oral gavage at 5 mL/kg for a dose of 0.5 mg/kg.
For pharmacokinetic analysis of orally administered compounds, serial venous blood samples (approximately 0.3 mL each) were taken from each animal at time points of 0, 0.25, 0.50, 1.0, 2.0, 4.0, 6.0, 8.0, 12.0 24.0, 48.0 and 72 hours after dosing. Blood samples were collected, prepared and analyzed in a similar way to the intravenous studies described above. Non-compartmental pharmacokinetic analysis was performed on the plasma concentration-time data. In Table 2, F (%) refers to oral bioavailability.

A further series has as its target PXR (NR1I2) (Homo sapiens (Human), UniProt O75469). The experiment in a line: Human PXR activation assay (luciferase reporter, DPX2 cells). Type of series: cell-based. The following applies: human; 15 uM; DPX2 cells; % Emax relative to rifampicin, adjusted for DMSO background; read-out: PXR % inh at 15 uM (adjusted). On the procedure: Luciferase Reporter Gene Assay.
A stably transformed tumor cell line (DPX2) was plated on 96-well microtiter plates. […]. The number of viable cells was determined and the reporter gene activity was assessed. […]
Background: In a reporter assay the amount or activity of a reporter protein is the signal.

A further series relates to HIV-1 E138K/Q148K. The series is classed as cell-based. The following applies: MT2 cells; mean EC50 mutant / mean EC50 wt. How it is done:
as §1, §2, §3, §4

The next series deals with HIV-1 N155H/Q148R. Type of series: cell-based. As to conditions: MT2 cells; mean EC50 mutant / mean EC50 wt. On the procedure: as §1, §2, §3, §4
In the next series the test system is HIV-1 E92Q/N155H. Type of series: cell-based. The following applies: MT2 cells; mean EC50 mutant / mean EC50 wt. On the procedure:
as §1, §2, §3, §4

The subject of another series is HIV-1 G140S/Q148R. Type of series: cell-based. As to conditions: MT2 cells; mean EC50 mutant / mean EC50 wt. On the procedure: as §1, §2, §3, §4

Chain of PXR (NR1I2) (O75469 whole entry): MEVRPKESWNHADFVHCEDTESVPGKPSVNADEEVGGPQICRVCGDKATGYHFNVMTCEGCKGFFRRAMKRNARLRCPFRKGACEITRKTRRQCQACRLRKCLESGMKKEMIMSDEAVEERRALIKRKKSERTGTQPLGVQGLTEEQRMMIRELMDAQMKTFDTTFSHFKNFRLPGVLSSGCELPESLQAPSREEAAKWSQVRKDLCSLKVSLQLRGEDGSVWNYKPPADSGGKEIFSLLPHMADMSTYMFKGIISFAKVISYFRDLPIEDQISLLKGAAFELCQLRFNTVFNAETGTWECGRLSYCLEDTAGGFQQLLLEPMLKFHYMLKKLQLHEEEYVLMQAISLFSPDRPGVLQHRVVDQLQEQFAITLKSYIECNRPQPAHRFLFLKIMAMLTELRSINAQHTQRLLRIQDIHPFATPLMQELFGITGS

With `CCN1C(=O)c2c(O)c(=O)c(C(=O)NCc3ccc(F)c(Cl)c3F)cn2[C@H]2CCOC[C@H]21` [Compound 39], the pIC50 – broadly, the negative decadic logarithm of the IC50, by convention in mol/L – against OCT2 is 5.00. The pEC50 with wild-type HIV-1 is 9.05. Moreover, in series [1], the bioavailability amounted to 15%. Moreover, the inhibition at 24 h, 15 µM on PXR (NR1I2) stood at 5%. For the same molecule, the “Resistance fold shift E138K/Q148K vs. wild type” value with HIV-1 E138K/Q148K stood at 1.5 fold shift. The “Resistance fold shift N155H/Q148R vs. wild type” value in the series on HIV-1 N155H/Q148R is 2.8 fold shift. For the same molecule, the “Resistance fold shift E92Q/N155H vs. wild type” value in the series with HIV-1 E92Q/N155H stood at 2.3 fold shift. Besides, in the series on HIV-1 G140S/Q148R, the “Resistance fold shift G140S/Q148R vs. wild type” value came to 1.8 fold shift.
With `CCN1C(=O)c2c(O)c(=O)c(C(=O)NCc3ccc(F)c(Cl)c3F)cn2[C@H]2CCO[C@H]21` [Compound 25b], the pIC50 at OCT2 is 5.00. The pEC50 in the series on wild-type HIV-1 was 8.85. Also, the bioavailability in series [1] was found to be 39%. The inhibition at 24 h, 15 µM on PXR (NR1I2) came to 13%. Moreover, in the series on HIV-1 E138K/Q148K, the “Resistance fold shift E138K/Q148K vs. wild type” value stood at 2.3 fold shift. In the series on HIV-1 N155H/Q148R, the “Resistance fold shift N155H/Q148R vs. wild type” value is listed as 2.2 fold shift. Further, the “Resistance fold shift E92Q/N155H vs. wild type” value in the series with HIV-1 E92Q/N155H was determined as 2.2 fold shift. Moreover, the “Resistance fold shift G140S/Q148R vs. wild type” value in the series with HIV-1 G140S/Q148R was 1.9 fold shift.
